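Compound exposure: 48 hours, 5 concentrations, 96-well plates. GI50 = concentration required for 50% inhibition of growth.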 Activity calls are given as the source filed them. Cut-off read from the data, not from the text of the source: active = GI50 up to about 1.1 µM and inactive = higher.
Tests used:
Experiment in all cases: NCI anticancer screen, dose series, 48 h
SR = tested on: SR
TK-10 = tested on: TK-10
HT-29 = tested on: HT-29
NCI-H23 = tested on: NCI-H23
SN12C = tested on: SN12C
SF-539 = tested on: SF-539
A549 = tested on: A549
MOLT-4 = tested on: MOLT-4
OVCAR-8 = tested on: OVCAR-8
IGROV-1 = tested on: IGROV-1
SNB-19 = tested on: SNB-19
SNB-75 = tested on: SNB-75
SW-620 = tested on: SW-620
MDA-MB-435 = tested on: MDA-MB-435
NCI/ADR-RES = tested on: NCI/ADR-RES
M14 = tested on: M14
HOP-92 = tested on: HOP-92
KM12 = tested on: KM12
SK-MEL-28 = tested on: SK-MEL-28
MDA-MB-231 = tested on: MDA-MB-231

Measured: GI50

N=C1/C(=C/c2ccccc2)C(=O)N=C2SC=NN12
inactive: SR > 100 µM | TK-10 > 100 µM | HT-29 > 100 µM | NCI-H23 > 100 µM | SN12C > 100 µM | SF-539 29.7 µM | A549 > 100 µM | MOLT-4 > 100 µM | OVCAR-8 > 100 µM | IGROV-1 > 100 µM | SNB-19 > 100 µM | SNB-75 > 100 µM | SW-620 > 100 µM | MDA-MB-435 > 100 µM | NCI/ADR-RES > 100 µM | M14 > 100 µM | HOP-92 > 100 µM | KM12 > 100 µM | SK-MEL-28 > 100 µM | MDA-MB-231 > 100 µM

CC1CCN(c2nnc(Cl)cc2C(=O)c2ccccc2)CC1
inactive: SR 17.5 µM | TK-10 37.6 µM | HT-29 17.7 µM | NCI-H23 25.5 µM | SN12C 50.7 µM | SF-539 25.4 µM | A549 32.1 µM | MOLT-4 20.7 µM | OVCAR-8 58.7 µM | IGROV-1 35.3 µM | SNB-19 26.9 µM | SNB-75 27.5 µM | SW-620 22.1 µM | MDA-MB-435 21.5 µM | NCI/ADR-RES 36.6 µM | M14 27 µM | HOP-92 16 µM | KM12 18 µM | SK-MEL-28 39.3 µM | MDA-MB-231 27.5 µM

C/C=C(/COC(C)=O)C(=O)OC1C=C(C=O)C(C)(C)C=C1C (stereo not given)
inactive: SR 27.5 µM | TK-10 > 100 µM | HT-29 > 100 µM | NCI-H23 > 100 µM | SN12C > 100 µM | SF-539 > 100 µM | A549 > 100 µM | MOLT-4 > 10 µM | OVCAR-8 > 100 µM | IGROV-1 96.6 µM | SNB-19 > 100 µM | SNB-75 43.6 µM | SW-620 > 100 µM | MDA-MB-435 > 100 µM | NCI/ADR-RES > 100 µM | M14 > 100 µM | HOP-92 > 100 µM | KM12 > 100 µM | SK-MEL-28 > 100 µM | MDA-MB-231 > 100 µM

CC1=C[C@@H](C)C[C@]2(C)CC[C@H](O2)[C@]23CC[C@](C(=O)O)(C[C@H](O2)[C@@H]2O[C@@](C)(CC2=O)[C@@H](O)[C@H]2CC[C@@]4(CCC[C@@H](O4)[C@H](C)C(=O)O[C@H]4C[C@H]([C@]5(O)OCC[C@H](C)[C@@H]5O)O[C@H]4C=C1)O2)O3
inactive: SR > 10 µM | TK-10 > 7.62 µM | HT-29 > 10 µM | NCI-H23 > 10 µM | SN12C > 8.55 µM | SF-539 > 5.82 µM | A549 > 10 µM | MOLT-4 > 10 µM | OVCAR-8 > 10 µM | IGROV-1 > 5.5 µM | SNB-19 > 10 µM | SNB-75 3.5 µM | SW-620 > 10 µM | MDA-MB-435 > 10 µM | NCI/ADR-RES > 10 µM | M14 > 9.38 µM | HOP-92 > 3.92 µM | KM12 > 10 µM | SK-MEL-28 > 10 µM | MDA-MB-231 > 10 µM

COc1ccc2nc3ccc(OC)cc3c(SCCO)c2c1
inactive: SR 19 µM | TK-10 51.3 µM | HT-29 17.3 µM | NCI-H23 16.2 µM | SN12C 26.4 µM | SF-539 20.7 µM | A549 > 78.7 µM | MOLT-4 3.03 µM | OVCAR-8 17 µM | IGROV-1 15 µM | SNB-19 > 59.7 µM | SNB-75 28.6 µM | SW-620 28.4 µM | MDA-MB-435 21.5 µM | NCI/ADR-RES 27 µM | M14 77.3 µM | HOP-92 > 67.5 µM | KM12 22.5 µM | SK-MEL-28 55.8 µM | MDA-MB-231 34.7 µM

CC(C)C(Cl)CCC(C)(Cl)C(=O)CBr (stereo not given)
active: SR 0.845 µM | MOLT-4 0.418 µM
inactive: TK-10 5.83 µM | HT-29 4.36 µM | NCI-H23 5.5 µM | SN12C 14.5 µM | SF-539 16.9 µM | A549 20.8 µM | OVCAR-8 3.37 µM | IGROV-1 6.67 µM | SNB-19 29.6 µM | SNB-75 16.1 µM | SW-620 2 µM | MDA-MB-435 4.18 µM | NCI/ADR-RES 6.81 µM | M14 3.43 µM | HOP-92 10 µM | KM12 14.5 µM | SK-MEL-28 5.01 µM | MDA-MB-231 5.37 µM

CN(CCn1cnc2c1c(=O)n(C)c(=O)n2C)C1CCCCC1
inactive: SR > 100 µM | TK-10 > 100 µM | HT-29 > 100 µM | NCI-H23 > 100 µM | SN12C > 100 µM | SF-539 > 100 µM | A549 > 100 µM | MOLT-4 > 100 µM | OVCAR-8 > 100 µM | IGROV-1 > 100 µM | SNB-19 > 100 µM | SNB-75 > 100 µM | SW-620 > 100 µM | MDA-MB-435 > 100 µM | NCI/ADR-RES > 100 µM | M14 > 100 µM | HOP-92 > 100 µM | KM12 > 100 µM | SK-MEL-28 > 100 µM | MDA-MB-231 > 100 µM

O=C(O)c1cccc(/[As]=[As]\c2cccc(C(=O)O)c2)c1 (stereo not given)
inactive: SR 28.7 µM | TK-10 23.2 µM | HT-29 49.3 µM | NCI-H23 31 µM | SN12C 38.2 µM | SF-539 16.6 µM | A549 > 100 µM | MOLT-4 30.3 µM | OVCAR-8 34.6 µM | IGROV-1 34.2 µM | SNB-19 32.2 µM | SNB-75 21.5 µM | SW-620 32.7 µM | MDA-MB-435 52.1 µM | NCI/ADR-RES 75.7 µM | M14 45.9 µM | HOP-92 18.7 µM | KM12 > 100 µM | SK-MEL-28 > 100 µM | MDA-MB-231 21.6 µM

CCC(C)C(=O)OC1CC2(C)C(c3ccoc3)OC(=O)CC23OC2(C)OC34C(OC(=O)C(C)C)C3(O)C(OC(=O)C5(C)OC5C)C5(C)CC3(O)C(C)(C5CC(=O)OC)C14O2 (stereo not given)
inactive: SR 24.1 µM | TK-10 65 µM | HT-29 29.7 µM | NCI-H23 54.3 µM | SN12C > 100 µM | SF-539 15 µM | A549 34.3 µM | MOLT-4 20.7 µM | OVCAR-8 52.6 µM | IGROV-1 64.4 µM | SNB-19 32.6 µM | SNB-75 15.5 µM | SW-620 50 µM | MDA-MB-435 83 µM | NCI/ADR-RES 21.7 µM | M14 42.9 µM | HOP-92 36.8 µM | KM12 43 µM | SK-MEL-28 > 100 µM | MDA-MB-231 56.2 µM

O=C(O)c1cc(/C=C/c2ccc(O)c(O)c2)ccc1O
inactive: SR 38.3 µM | TK-10 > 100 µM | HT-29 > 100 µM | NCI-H23 > 100 µM | SN12C > 100 µM | SF-539 > 100 µM | A549 > 100 µM | MOLT-4 30.8 µM | OVCAR-8 > 100 µM | IGROV-1 > 100 µM | SNB-19 > 100 µM | SNB-75 > 100 µM | SW-620 > 10 µM | MDA-MB-435 77.8 µM | NCI/ADR-RES > 100 µM | M14 45.8 µM | HOP-92 > 100 µM | KM12 > 100 µM | SK-MEL-28 > 100 µM | MDA-MB-231 > 100 µM
